{
  "source": "patent US8993624B2",
  "about": "“Method of preventing and treating inflammatory diseases and disorders with abscisic acid” (Virginia Tech Intellectual Properties, Inc., priority 2010, dated 2015)",
  "key": {"[1]": {"system": "LPS-induced splenic gene expression", "assay": "LPS challenge in mice, spleen microarray and network analysis", "text": "Microarray data analysis—After homogenization of spleens, total RNA was extracted and purified using the RNAeasy system according to manufacturer's instructions (Qiagen Valencia, Calif.). The QIAGEN RNase-free DNase supplement kit was used to ensure that the RNA was free from DNA contamination. RNA was then processed and labeled according to the standard target labeling protocols and the samples were hybridized, stained, and scanned per standard Affymetrix protocols at VBI core laboratory on Mouse 430 2.0 expression arrays (Affymetrix Inc., Santa Clara, Calif.). All statistical analysis of the data was performed within the R statistical environment—Version 2.9.0 (24) using Bioconductor packages (25)]. Raw microarray data from CEL files were read with ‘affy’ package (26) and pre-processed by gcRMA algorithm (GC Robust Multiarray Average) that performs the three steps: (i) adjustment of the gene expression signal against the background caused by optical noise and non-specific binding, (ii) robust multi-array normalization (27), and (iii) summarization of the probes belonging to each probe set. Empirical Bayes adjustment was applied and p-values were corrected for multiple testing. […] The selected list of genes was analysed with hypergeometric testing that applies Fisher's exact test to find association between interesting genes and membership within the KEGG pathway(s).\nThe experiment followed a 2×2 factorial design with 2 factors: LPS and ABA, each with 2 levels: absence and presence. Thus there were four groups of mice: LPS & ABA, LPS & control, no LPS & control, no LPS & ABA. The design matrix, constructed in the package ‘limma’, defined coefficients for LPS main effect, ABA main effect and the interaction effect. […] These 43 probe sets were uploaded to IPA8.0 for Ingenuity Pathway Analysis (Ingenuity Systems, Redwood City, Calif.)."}, "lymphocytes": {"system": "lymphocytes", "assay": "IL-2 production and lymphocyte proliferation (unpublished data)", "type": "cell-based"}, "macrophages": {"system": "macrophages", "assay": "Intracellular cAMP in macrophages", "type": "cell-based, mouse", "conditions": "10 minutes", "experimental": "(§1) Intracellular cAMP in CD3/CD28-stimulated splenocytes and LPS-stimulated macrophages—Spleens were excised from C57BL6/J mice under sterile conditions. Cells were released by disrupting the tissue between frosted glass slides and red blood cells were lysed with erythrocyte lysis buffer. Splenocytes were enumerated with a Coulter Counter (Beckman Coulter, Fullerton, Calif.) and seeded in cRPMI at 1×10^6/ml onto 24-well plates pre-coated with anti-mouse CD3 (5 μg/mL; BD Pharmingen) and anti-mouse CD28 (1 μg/mL; BD Pharmingen). […] For intracellular assessment of cAMP, cells were harvested into 0.1 M HCl and the lysates were collected. The cAMP concentration of the lysates was determined using an EIA kit (Assay Designs, Ann Arbor, Mich.)."}, "NF-κB p65": {"system": "NF-κB p65", "assay": "NF-κB p65 activity in BMM stimulated with LPS/IFN-γ", "type": "cell-based, mouse", "experimental": "Bone Marrow-derived Macrophage (BMM) Cultures—Bone marrow cells from PPAR γ flfl; MMTV-Cre− (flfl-Cre−) and flfl-Cre+ mice were cultured in DMEM with M-CSF (50 ng/ml) for 7 days. Fresh media with M-CSF was added on day 3. […] Following differentiation macrophages were directly stimulated with LPS (100 ng/ml) as previously described for 12 hours (21). ABA was added to macrophage cultures at a concentration of 2.5 μM. […]\nNF-κB and NFAT activities—Spleens were diced into smaller pieces in lysis buffer containing dithiothreitol and a protease inhibitor cocktail and then further disrupted using a dounce ground glass homogenizer at 4° C. […] The extracts were used to perform a Bradford-based assay for quantifying the protein concentrations and stored at −80° C. NF-κB and NFATc1 activities were measured as previously described (13) by using the Trans-AM™ NF-κB p65 and the Trans-AM™ NFATc1 ELISA-based assays (Active Motif), respectively per the manufacturer's instructions."}, "RXR": {"system": "RXR", "assay": "RXR reporter activity (data not shown)", "type": "cell-based"}, "[2]": {"system": "CD3/CD28-stimulated splenocytes", "assay": "Intracellular cAMP and mRNA in CD3/CD28-stimulated splenocytes", "type": "cell-based, mouse", "experimental": "as §1"}, "[3]": {"system": "LPS-stimulated bone marrow-derived macrophages", "assay": "Inflammatory mediators in LPS-stimulated bone marrow-derived macrophages", "type": "cell-based, mouse", "conditions": "ABA 2.5 μM, 12 hours", "experimental": "Bone Marrow-derived Macrophage (BMM) Cultures—Bone marrow cells from PPAR γ flfl; MMTV-Cre− (flfl-Cre−) and flfl-Cre+ mice were cultured in DMEM with M-CSF (50 ng/ml) for 7 days. Fresh media with M-CSF was added on day 3. […] Following differentiation macrophages were directly stimulated with LPS (100 ng/ml) as previously described for 12 hours (21). ABA was added to macrophage cultures at a concentration of 2.5 μM. The effect of ABA on LPS/toll-like receptor-4 (TLR4)-mediated prostaglandin E2 (PGE2), leukotriene B4 (LTB4) and monocyte chemoattractant protein-1 (MCP-1) production by macrophages was examined in cell supernatants 12 hours following the LPS challenge by using a commercial PGE2 EIA kit (Cayman Chemicals), a LTB4 competitive binding assay (R&D Systems) and a MCP-1 ELISA (R&D Systems), respectively, per the manufacturer's instructions."}, "Influenza A/Udorn (H3N2)": {"system": "Influenza A/Udorn (H3N2)", "assay": "Dietary (prophylactic) ABA, influenza virus challenge in mice", "type": "in vivo, mouse", "conditions": "for survival: ABA diet"}, "NF-κB": {"system": "NF-κB", "assay": "NF-κB reporter activity assay in 3T3-L1 cells"}, "[4]": {"system": "LPS-induced splenic gene expression", "assay": "LPS challenge in mice, spleen real-time qRT-PCR"}, "A/California/09 (H1N1)": {"system": "A/California/09 (H1N1)", "assay": "Post-exposure ABA by gavage, A/California/09 (H1N1) challenge in mice", "type": "in vivo, mouse"}, "[5]": {"system": "inactivated influenza virus PR8 antigens", "assay": "Lymphocyte proliferation after influenza virus vaccination of mice", "type": "in vivo, mouse"}, "PPAR γ": {"system": "PPAR γ", "assay": "LANCL2 siRNA and PPAR γ co-transfections in RAW macrophages", "type": "cell-based", "quoted_text": "LANCL2 siRNA and PPAR γ co-transfections—RAW macrophages were transfected with the PPAR γ plasmid as described in the preceding section with or without LANCL2 siRNA. Specifically, RAW macrophages were then co-transfected with 0.2-μg plasmid DNA and 0.25 μL LANCL2 siRNA (20 μM) per well using the Lipofectamine 2000 transfection reagent (Invitrogen). […] After incubation, RAW macrophages were harvested in reporter lysis reagent and luciferase activity was determined as described above. LANCL2 mRNA was measured by RT-PCR in control wells to assess the efficiency of knockdown."}, "[6]": {"system": "LPS-induced systemic inflammation", "assay": "LPS challenge in mice, immune cell subsets by flow cytometry", "type": "in vivo, mouse", "experimental": "Flow Cytometry—Mesenteric lymph nodes (MLN) and spleen-derived cells (2×10^5 cells/well) or whole blood (10 μL/well) were seeded onto 96-well plates, centrifuged at 4° C. at 3000 rpm for 4 minutes, and washed with PBS containing 5% fetal bovine serum and 0.09% sodium azide (FACS buffer). To assess differential monocyte/macrophage subsets, the cells were incubated in the dark at 4° C. for 20 minutes in FcBlock (20 μg/ml; BD Pharmingen), and then for an additional 20 minutes with fluorochrome-conjugated primary antibodies anti-F4/80-PE-Cy5 (5 μg/mL, eBioscience) and anti-CD 11b-Alexa Fluor 700 (2 μg/mL, eBioscience), and anti-TLR-4-PE-Cy7 (2 μg/mL, eBioscience). For lymphocyte assessment, cells were incubated with anti-CD4-FITC (2 μg/mL; BD Pharmingen), anti-CD8-PerCp-Cy5.5 (2 μg/mL, eBioscience), CD3 PE-Cy5 (2 μg/mL; BD Pharmingen), anti-TLR-4 PE-Cy7, and anti-IL17A-PE (2 μg/mL, eBioscience) as previously shown (23). Flow results were computed with a BD LSR II flow cytometer and data analyses was performed with FACS Diva software (BD)."}, "[7]": {"conditions": "network analysis, LPS challenged mice"}, "[8]": {"conditions": "mice lacking PPAR γ in immune cells"}},
  "data": [
    {"smiles": "CC1=CC(=O)CC(C)(C)C1(O)/C=C/C(C)=C\\C(=O)O", "note": "(racemic) [ABA, abscisic acid]", "values": [
      {"measurement": "magnitude of LPS-modulated gene expression (fold-change)", "setting": "[1]; 64 genes, spleen", "value": "attenuated"},
      {"measurement": "ABA effect on LPS-induced gene expression", "setting": "[1]; absence of functional immune cell PPAR γ", "value": "impaired (or abrogated)"},
      {"measurement": "nuclear receptors (PPAR γ, PPAR α, RXRα, RXRβ)", "setting": "[1]; [7]", "value": "up-regulation"},
      {"measurement": "pro-inflammatory genes (IL-6, IL-1β, MIF and IFN-γ)", "setting": "[1]; [7]", "value": "down-regulation"},
      {"measurement": "expression of IL-6, IFN-γ, TNF-α induced protein 2 and chemokine ligand 11", "setting": "[1]; spleen, 6 hours post LPS", "value": "down-regulated"},
      {"measurement": "IL-2 production", "setting": "lymphocytes", "value": "increases"},
      {"measurement": "lymphocyte proliferation", "setting": "lymphocytes", "value": "increases"},
      {"measurement": "concentration at cAMP peak", "setting": "macrophages", "value": 2.5, "unit": "µM"},
      {"measurement": "cAMP peak over control", "setting": "macrophages; 2.5 μM", "value": 10, "unit": "%"},
      {"measurement": "NF-κB p65 activity in nuclear extracts", "setting": "NF-κB p65; 2.5 μM ABA, PPAR γ-expressing primary macrophages", "value": "significantly decreased"},
      {"measurement": "NF-κB activity", "setting": "NF-κB p65; macrophages with loss of PPAR γ", "value": "further activation induced by ABA"},
      {"measurement": "RXR reporter activity", "setting": "RXR", "value": "does not increase"},
      {"measurement": "LANCL2 mRNA expression", "setting": "[2]", "value": "not LANCL2 mRNA expression"},
      {"measurement": "PPAR γ expression", "setting": "[2]", "value": "upregulation of PPAR γ"},
      {"measurement": "intracellular cAMP", "setting": "[2]; ABA 10 μM", "value": "significantly increased intracellular cAMP"},
      {"measurement": "phosphodiesterase activity", "setting": "[2]; data not shown", "value": "without affecting phosphodiesterase activity"},
      {"measurement": "PGE2 secretion", "setting": "[3]; EIA", "value": "significantly suppressed"},
      {"measurement": "MCP-1 secretion", "setting": "[3]; ELISA", "value": "significantly suppressed"},
      {"measurement": "survival", "setting": "Influenza A/Udorn (H3N2); WT mice", "value": 100, "unit": "%"},
      {"measurement": "maximum loss of original body weight", "setting": "Influenza A/Udorn (H3N2); WT mice, ABA diet 100 mg/kg of diet", "value": 5, "unit": "%"},
      {"measurement": "lung MCP-1 mRNA expression", "setting": "Influenza A/Udorn (H3N2); WT mice, vs control diet", "value": "consistently lower levels of MCP-1 mRNA expression"},
      {"measurement": "extent of vascular infiltrates", "setting": "Influenza A/Udorn (H3N2); WT, vs control diet", "value": "diminished"},
      {"measurement": "infiltration of respiratory airways", "setting": "Influenza A/Udorn (H3N2); WT, vs control diet", "value": "diminished"},
      {"measurement": "lung MCP-1 mRNA expression", "setting": "Influenza A/Udorn (H3N2); cKO mice", "value": "failed to down-regulate MCP-1 expression"},
      {"measurement": "beneficial effect on lung inflammatory cell infiltration", "setting": "Influenza A/Udorn (H3N2); cKO mice fed ABA", "value": "abrogated"},
      {"measurement": "survival", "setting": "Influenza A/Udorn (H3N2); cKO mice", "value": 71.2, "unit": "%"},
      {"measurement": "viral loads in the lungs", "setting": "Influenza A/Udorn (H3N2); day 4 post-infection", "value": "no significant differences"},
      {"measurement": "expression of PPAR γ in BAL-derived cells", "setting": "Influenza A/Udorn (H3N2); healthy non-infected WT mice, 36 days", "value": "significantly increased"},
      {"measurement": "epithelial recovery", "setting": "Influenza A/Udorn (H3N2); lung histopathology", "value": "neither did it have any effect"},
      {"measurement": "extent of epithelial necrosis", "setting": "Influenza A/Udorn (H3N2); lung histopathology, days 2, 4, 7", "value": "did not affect"},
      {"measurement": "weight loss", "setting": "Influenza A/Udorn (H3N2); mice with defective PPAR γ expression in immune and epithelial cells (cKO)", "value": "behaved similar to WT mice fed the control diet"},
      {"measurement": "NF-κB reporter activity", "setting": "NF-κB", "value": "significantly suppressed"},
      {"measurement": "iNOS mRNA expression", "setting": "[4]; data not shown", "value": "no effect"},
      {"measurement": "effects of ABA on splenic gene expression", "setting": "[4]; [8]", "value": "abrogated"},
      {"measurement": "NCOA6 mRNA expression", "setting": "[4]; regardless of the LPS challenge", "value": "increased"},
      {"measurement": "Glut4 mRNA", "setting": "[4]; spleen, LPS challenge", "value": "mitigated the LPS-mediated suppression"},
      {"measurement": "PPAR γ mRNA", "setting": "[4]; spleen, LPS challenge", "value": "mitigated the LPS-mediated suppression"},
      {"measurement": "TNF-α mRNA", "setting": "[4]; spleen, LPS challenge", "value": "suppressed LPS-mediated up-regulation"},
      {"measurement": "weight loss and recovery", "setting": "A/California/09 (H1N1); 100 mg/kg oral gavage once daily 10 days, from 4 hours post-infection", "value": "suppressed weight loss for both strains and accelerated recovery"},
      {"measurement": "glucose tolerance", "setting": "A/California/09 (H1N1); lean and obese mice infected with H1N1", "value": "ameliorated glucose tolerance"},
      {"measurement": "glucose tolerance", "setting": "A/California/09 (H1N1); uninfected control mice", "value": "ameliorated glucose tolerance"},
      {"measurement": "MCP-1 expression in white adipose tissue", "setting": "A/California/09 (H1N1); uninfected mice", "value": "down-regulated MCP-1 expression"},
      {"measurement": "antigen-specific lymphoproliferative recall responses", "setting": "[5]; ABA diet 100 mg/kg, days 14 and 21 post-vaccination", "value": "increased"},
      {"measurement": "immunostimulatory effect on responses to influenza vaccination", "setting": "[5]; [8]", "value": "attenuated"},
      {"measurement": "PPAR γ reporter activity", "setting": "PPAR γ; normal LANCL2, ABA 1.25-10 μM, Ros 1 or 10 μM, vs untreated cells", "value": "significantly elevated PPAR γ"},
      {"measurement": "PPAR γ reporter activity", "setting": "PPAR γ; with LANCL2 siRNA", "value": "neither ABA nor Ros significantly affected PPAR γ activity"},
      {"measurement": "TLR4 expression levels by macrophages", "setting": "[6]; LPS-treated PPAR γ-expressing mice", "value": "reduced"},
      {"measurement": "percentages of blood monocytes (F4/80+CD11b+)", "setting": "[6]; LPS-treated immune cell-specific PPAR γ null mice, diet 36 days", "value": "significantly increased"},
      {"measurement": "TLR4 expression in CD8+ T cells", "setting": "[6]; non-LPS treated mice", "value": "significantly reduced"},
      {"measurement": "TLR4 expression in MLN F4/80+CD11b+ macrophages", "setting": "[6]; supplemented diet 36 days", "value": "significantly suppressed"}
    ]}
  ]
}
